According to the CheMixHub viscosity set:

Test: xn = mol fraction of the nth substance listed

CC(=O)O + CC(C)=O
viscosity [mPa·s], 101 kPa
Conditions | 293.15 K | 298.15 K | 303.15 K | 313.15 K
x1 = 0.0996 | – | 0.3496 | – | –
x1 = 0.13 | 0.3909 | – | 0.3546 | 0.3238
x1 = 0.2035 | – | 0.4046 | – | –
x1 = 0.222 | 0.4389 | – | 0.3976 | 0.3607
x1 = 0.302 | 0.4916 | – | 0.4411 | 0.3993
x1 = 0.3025 | – | 0.4636 | – | –
x1 = 0.4025 | 0.5632 | – | 0.5015 | 0.4518
x1 = 0.4049 | – | 0.535 | – | –
x1 = 0.4986 | – | 0.6098 | – | –
x1 = 0.5066 | 0.6549 | – | 0.5766 | 0.5138
x1 = 0.5973 | – | 0.6994 | – | –
x1 = 0.605 | 0.7515 | – | 0.6562 | 0.5817
x1 = 0.6968 | – | 0.8024 | – | –
x1 = 0.6994 | 0.8612 | – | 0.7482 | 0.6564
x1 = 0.8015 | – | 0.9213 | – | –
x1 = 0.805 | 0.9881 | – | 0.8527 | 0.7437
x1 = 0.9011 | 1.103 | – | 0.9472 | 0.8218
x1 = 0.9037 | – | 1.036 | – | –

ClCCl + CC(C)=O
viscosity [mPa·s], 101 kPa
Conditions | x2 = 0.0866 | x2 = 0.186 | x2 = 0.3088 | x2 = 0.3898 | x2 = 0.4934 | x2 = 0.5941 | x2 = 0.6959 | x2 = 0.8096 | x2 = 0.899
293.15 K | 0.439 | 0.436 | 0.423 | 0.412 | 0.4 | 0.388 | 0.374 | 0.358 | 0.339
298.15 K | 0.422 | 0.417 | 0.405 | 0.396 | 0.383 | 0.37 | 0.357 | 0.343 | 0.327

CCC(C)Br (stereo unspecified) + CC(C)CO
viscosity [mPa·s], 101.3 kPa
Conditions | 298.15 K | 313.15 K
x1 = 0.0474 | 2.895 | 1.857
x1 = 0.102 | 2.431 | 1.596
x1 = 0.203 | 1.813 | 1.244
x1 = 0.3032 | 1.407 | 1.007
x1 = 0.4043 | 1.126 | 0.8382
x1 = 0.5066 | 0.9316 | 0.7176
x1 = 0.6053 | 0.7983 | 0.6315
x1 = 0.7043 | 0.7016 | 0.5696
x1 = 0.803 | 0.6311 | 0.5215
x1 = 0.8948 | 0.5854 | 0.4887
x1 = 0.9318 | 0.5716 | 0.4796

CCNc1ccccc1 + CC(C)CO
viscosity [mPa·s], 101 kPa
Conditions | 303.15 K | 308.15 K
x1 = 0.0756 | 2.789 | 2.414
x1 = 0.1356 | 2.742 | 2.38
x1 = 0.1958 | 2.695 | 2.348
x1 = 0.2654 | 2.637 | 2.307
x1 = 0.3214 | 2.588 | 2.27
x1 = 0.3956 | 2.517 | 2.215
x1 = 0.4565 | 2.454 | 2.16
x1 = 0.5202 | 2.384 | 2.106
x1 = 0.6021 | 2.284 | 2.029
x1 = 0.6745 | 2.194 | 1.956
x1 = 0.7325 | 2.116 | 1.889
x1 = 0.8025 | 2.019 | 1.811
x1 = 0.8869 | 1.903 | 1.714

CC(=O)O + CC(C)O
viscosity [mPa·s], 101 kPa
Conditions | x1 = 0.00598 | x1 = 0.02919 | x1 = 0.04037 | x1 = 0.0567 | x1 = 0.1073 | x1 = 0.1528 | x1 = 0.1938 | x1 = 0.2308
298.15 K | 2.633 | 2.564 | 2.503 | 2.435 | 2.286 | 2.221 | 2.133 | 2.058
308.15 K | 1.962 | 1.906 | 1.877 | 1.843 | 1.75 | 1.696 | 1.651 | 1.621
318.15 K | 1.521 | 1.491 | 1.474 | 1.454 | 1.4 | 1.363 | 1.33 | 1.306

CCOC=O + CC(C)O
viscosity [mPa·s], 100 kPa
Conditions | x1 = 0.0814 | x1 = 0.1589 | x1 = 0.2351 | x1 = 0.3413 | x1 = 0.4351 | x1 = 0.5587 | x1 = 0.6507 | x1 = 0.7349 | x1 = 0.8498 | x1 = 0.9394
293.15 K | 1.77 | 1.33 | 1.06 | 0.82 | 0.68 | 0.57 | 0.52 | 0.48 | 0.44 | 0.42
298.15 K | 1.53 | 1.18 | 0.95 | 0.76 | 0.64 | 0.54 | 0.49 | 0.46 | 0.42 | 0.4
303.15 K | 1.35 | 1.06 | 0.87 | 0.7 | 0.59 | 0.51 | 0.46 | 0.43 | 0.4 | 0.38
308.15 K | 1.19 | 0.95 | 0.79 | 0.65 | 0.56 | 0.48 | 0.44 | 0.41 | 0.38 | 0.36
313.15 K | 1.05 | 0.85 | 0.71 | 0.59 | 0.52 | 0.45 | 0.41 | 0.39 | 0.36 | 0.34
318.15 K | 0.92 | 0.75 | 0.64 | 0.54 | 0.48 | 0.42 | 0.39 | 0.36 | 0.34 | 0.32
323.15 K | 0.81 | 0.67 | 0.57 | 0.49 | 0.44 | 0.38 | 0.36 | 0.33 | 0.31 | 0.3

ClCCl + CC(C)O
298.15 K, 101 kPa
Conditions | viscosity [mPa·s]
x2 = 0.05 | 0.425
x2 = 0.0992 | 0.435
x2 = 0.1 | 0.433
x2 = 0.15 | 0.444
x2 = 0.2 | 0.458
x2 = 0.2021 | 0.457
x2 = 0.25 | 0.474
x2 = 0.299 | 0.491
x2 = 0.3 | 0.494
x2 = 0.35 | 0.518
x2 = 0.3974 | 0.548
x2 = 0.4 | 0.547
x2 = 0.45 | 0.583
x2 = 0.5 | 0.626
x2 = 0.55 | 0.679
x2 = 0.552 | 0.68
x2 = 0.5957 | 0.74
x2 = 0.6 | 0.744
x2 = 0.65 | 0.823
x2 = 0.6514 | 0.825
x2 = 0.7 | 0.917
x2 = 0.75 | 1.031
x2 = 0.8 | 1.167
x2 = 0.8003 | 1.16
x2 = 0.85 | 1.327
x2 = 0.8515 | 1.321
x2 = 0.897 | 1.515
x2 = 0.9 | 1.516
x2 = 0.924 | 1.619
x2 = 0.9482 | 1.742
x2 = 0.95 | 1.738
x2 = 0.975 | 1.912

CCCCCCCCCCCCCCCC(=O)O + CC(C)[C@@H]1CC[C@@H](C)C[C@H]1O
100 kPa, x1 = 0.15
Conditions | viscosity [mPa·s]
313.15 K | 15.25
318.15 K | 11.78
323.15 K | 9.29
